Measured values as given in patent EP4745135A1 (Gluetacs Therapeutics (Shanghai) Co., Ltd., priority 2023, dated 2025).
pIC50: −log10 of the molar value.

What was measured:
CK1α = molecular target: T1, CK1α (Homo sapiens, UniProt P48729+Q96SW2); assay: Western blot, degradation of substrate protein in hPBMCs; assay type: cell-based; conditions: Western blot, 24 hours of compound treatment, compounds tested at 50 nM and 500 nM (concentration for the table not stated)
T1 construct: effects of the compounds of the present disclosure on the expression of target proteins in cells; endogenous in cells; host or cells: human PBMCs (Milecell Biotechnologies)
T1 sequence (P48729 whole entry): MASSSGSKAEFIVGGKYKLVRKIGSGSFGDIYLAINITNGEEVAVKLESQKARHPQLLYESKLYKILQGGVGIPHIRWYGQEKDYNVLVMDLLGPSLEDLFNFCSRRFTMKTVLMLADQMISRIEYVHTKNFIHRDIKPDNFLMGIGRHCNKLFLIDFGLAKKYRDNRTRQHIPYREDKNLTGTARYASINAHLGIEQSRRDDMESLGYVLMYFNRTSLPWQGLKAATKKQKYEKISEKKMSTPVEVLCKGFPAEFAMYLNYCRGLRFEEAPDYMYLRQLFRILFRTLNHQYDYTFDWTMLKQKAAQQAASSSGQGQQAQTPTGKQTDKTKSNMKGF
T1 sequence (Q96SW2 whole entry): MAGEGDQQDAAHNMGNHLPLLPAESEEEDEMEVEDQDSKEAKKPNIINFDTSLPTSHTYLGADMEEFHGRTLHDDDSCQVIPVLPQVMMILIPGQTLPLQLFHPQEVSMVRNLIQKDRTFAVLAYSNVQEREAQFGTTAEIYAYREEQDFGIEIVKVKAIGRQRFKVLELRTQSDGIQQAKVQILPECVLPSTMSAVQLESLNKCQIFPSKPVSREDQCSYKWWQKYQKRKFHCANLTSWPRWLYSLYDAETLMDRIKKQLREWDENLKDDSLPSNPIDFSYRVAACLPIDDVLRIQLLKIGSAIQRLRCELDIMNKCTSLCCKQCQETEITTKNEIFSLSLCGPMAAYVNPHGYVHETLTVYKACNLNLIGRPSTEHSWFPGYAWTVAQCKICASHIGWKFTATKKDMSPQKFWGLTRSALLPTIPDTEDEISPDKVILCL
T1 sequence (Q16531 whole entry partner): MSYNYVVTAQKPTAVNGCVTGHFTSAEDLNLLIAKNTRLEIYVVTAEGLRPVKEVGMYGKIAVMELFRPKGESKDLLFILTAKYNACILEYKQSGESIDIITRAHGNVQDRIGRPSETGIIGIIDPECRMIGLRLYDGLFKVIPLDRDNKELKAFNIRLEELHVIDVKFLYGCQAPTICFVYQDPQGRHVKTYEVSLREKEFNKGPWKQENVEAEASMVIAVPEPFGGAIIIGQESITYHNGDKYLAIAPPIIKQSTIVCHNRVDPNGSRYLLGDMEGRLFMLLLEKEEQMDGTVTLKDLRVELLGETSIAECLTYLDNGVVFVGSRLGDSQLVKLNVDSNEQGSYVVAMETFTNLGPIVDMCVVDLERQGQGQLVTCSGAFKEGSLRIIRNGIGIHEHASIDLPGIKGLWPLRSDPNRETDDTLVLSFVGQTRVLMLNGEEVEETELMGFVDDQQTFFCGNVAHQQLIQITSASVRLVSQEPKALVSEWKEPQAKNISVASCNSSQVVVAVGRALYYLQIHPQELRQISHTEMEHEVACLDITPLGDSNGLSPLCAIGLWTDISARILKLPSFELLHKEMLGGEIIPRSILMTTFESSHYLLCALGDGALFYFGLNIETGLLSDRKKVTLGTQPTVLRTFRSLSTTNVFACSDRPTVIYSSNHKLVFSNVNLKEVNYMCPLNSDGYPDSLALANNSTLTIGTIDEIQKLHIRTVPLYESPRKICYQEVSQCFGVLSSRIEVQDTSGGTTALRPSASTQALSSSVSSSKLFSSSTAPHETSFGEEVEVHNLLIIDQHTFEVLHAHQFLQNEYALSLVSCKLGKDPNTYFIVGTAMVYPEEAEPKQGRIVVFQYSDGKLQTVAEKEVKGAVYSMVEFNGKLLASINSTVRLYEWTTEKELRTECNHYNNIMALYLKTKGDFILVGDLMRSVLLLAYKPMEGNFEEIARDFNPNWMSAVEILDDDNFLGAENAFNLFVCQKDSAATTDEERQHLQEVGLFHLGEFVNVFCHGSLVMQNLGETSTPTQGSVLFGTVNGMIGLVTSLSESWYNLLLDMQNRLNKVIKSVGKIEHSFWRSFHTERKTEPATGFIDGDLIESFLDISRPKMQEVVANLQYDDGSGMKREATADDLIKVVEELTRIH

IKZF1 = molecular target: T2, IKZF1 (Homo sapiens, UniProt Q13422+Q96SW2); assay: as above; assay type: cell-based; conditions: Western blot, 24 hours of compound treatment, compounds tested at 50 nM and 500 nM (concentration for the table not stated)
T2 construct: effects of the compounds of the present disclosure on the expression of target proteins in cells; endogenous in cells; host or cells: human PBMCs (Milecell Biotechnologies)
T2 sequence (Q13422 whole entry): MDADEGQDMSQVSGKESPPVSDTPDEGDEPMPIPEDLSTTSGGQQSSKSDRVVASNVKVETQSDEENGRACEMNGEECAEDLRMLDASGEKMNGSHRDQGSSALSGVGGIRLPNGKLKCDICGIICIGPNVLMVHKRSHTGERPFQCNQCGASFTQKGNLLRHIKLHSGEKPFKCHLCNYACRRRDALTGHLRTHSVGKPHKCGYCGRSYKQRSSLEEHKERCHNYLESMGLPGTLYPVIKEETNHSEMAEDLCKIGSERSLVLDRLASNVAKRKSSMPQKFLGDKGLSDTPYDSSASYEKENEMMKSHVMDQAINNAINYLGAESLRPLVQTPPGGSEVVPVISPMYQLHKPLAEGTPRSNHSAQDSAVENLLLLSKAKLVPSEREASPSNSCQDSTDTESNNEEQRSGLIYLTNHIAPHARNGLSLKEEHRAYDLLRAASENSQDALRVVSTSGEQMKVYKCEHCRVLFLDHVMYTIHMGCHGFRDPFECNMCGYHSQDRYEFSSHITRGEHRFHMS
T2 sequence (Q96SW2 whole entry): as the sequence (Q96SW2 whole entry) above
T2 sequence (Q16531 whole entry partner): as the sequence (Q16531 whole entry partner) above

IKZF2 = molecular target: T3, IKZF2 (Homo sapiens, UniProt Q96SW2+Q9UKS7); assay: as above; assay type: cell-based; conditions: Western blot, 24 hours of compound treatment, compounds tested at 50 nM and 500 nM (concentration for the table not stated)
T3 construct: effects of the compounds of the present disclosure on the expression of target proteins in cells; endogenous in cells; host or cells: human PBMCs (Milecell Biotechnologies)
T3 sequence (Q9UKS7 whole entry): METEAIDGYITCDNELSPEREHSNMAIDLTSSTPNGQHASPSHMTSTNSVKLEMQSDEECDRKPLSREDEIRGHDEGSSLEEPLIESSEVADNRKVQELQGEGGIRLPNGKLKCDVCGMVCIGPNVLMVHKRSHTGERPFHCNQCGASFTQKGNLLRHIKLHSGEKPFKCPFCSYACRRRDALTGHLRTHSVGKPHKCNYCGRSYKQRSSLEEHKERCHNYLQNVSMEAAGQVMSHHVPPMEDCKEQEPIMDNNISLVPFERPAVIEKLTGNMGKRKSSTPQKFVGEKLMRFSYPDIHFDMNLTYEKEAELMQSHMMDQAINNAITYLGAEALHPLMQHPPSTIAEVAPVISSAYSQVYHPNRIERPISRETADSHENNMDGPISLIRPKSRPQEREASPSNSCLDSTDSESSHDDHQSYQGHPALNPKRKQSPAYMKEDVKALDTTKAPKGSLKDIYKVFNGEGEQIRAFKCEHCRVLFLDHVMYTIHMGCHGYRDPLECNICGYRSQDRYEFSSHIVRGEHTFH
T3 sequence (Q96SW2 whole entry): as the sequence (Q96SW2 whole entry) above
T3 sequence (Q16531 whole entry partner): as the sequence (Q16531 whole entry partner) above

IKZF3 = molecular target: T4, IKZF3 (Homo sapiens, UniProt Q96SW2+Q9UKT9); assay: as above; assay type: cell-based; conditions: Western blot, 24 hours of compound treatment, compounds tested at 50 nM and 500 nM (concentration for the table not stated)
T4 construct: effects of the compounds of the present disclosure on the expression of target proteins in cells; endogenous in cells; host or cells: human PBMCs (Milecell Biotechnologies)
T4 sequence (Q9UKT9 whole entry): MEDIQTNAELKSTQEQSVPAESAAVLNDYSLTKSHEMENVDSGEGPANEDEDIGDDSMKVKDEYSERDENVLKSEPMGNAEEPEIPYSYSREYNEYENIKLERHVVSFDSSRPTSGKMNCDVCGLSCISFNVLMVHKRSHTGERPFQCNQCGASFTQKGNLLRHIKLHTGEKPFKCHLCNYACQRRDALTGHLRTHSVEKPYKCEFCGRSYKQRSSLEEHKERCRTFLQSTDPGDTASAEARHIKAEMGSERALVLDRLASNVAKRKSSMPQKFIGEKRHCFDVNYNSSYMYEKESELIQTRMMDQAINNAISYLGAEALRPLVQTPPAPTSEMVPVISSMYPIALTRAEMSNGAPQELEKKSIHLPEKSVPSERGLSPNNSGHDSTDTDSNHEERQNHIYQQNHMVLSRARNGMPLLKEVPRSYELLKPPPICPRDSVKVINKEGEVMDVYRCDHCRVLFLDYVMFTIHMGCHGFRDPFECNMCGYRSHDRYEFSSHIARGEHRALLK
T4 sequence (Q96SW2 whole entry): as the sequence (Q96SW2 whole entry) above
T4 sequence (Q16531 whole entry partner): as the sequence (Q16531 whole entry partner) above

WEE1 = molecular target: T5, WEE1 (Homo sapiens, UniProt P30291+Q96SW2); assay: as above; assay type: cell-based; conditions: Western blot, 24 hours of compound treatment, compounds tested at 50 nM and 500 nM (concentration for the table not stated)
T5 construct: effects of the compounds of the present disclosure on the expression of target proteins in cells; endogenous in cells; host or cells: human PBMCs (Milecell Biotechnologies)
T5 sequence (P30291 whole entry): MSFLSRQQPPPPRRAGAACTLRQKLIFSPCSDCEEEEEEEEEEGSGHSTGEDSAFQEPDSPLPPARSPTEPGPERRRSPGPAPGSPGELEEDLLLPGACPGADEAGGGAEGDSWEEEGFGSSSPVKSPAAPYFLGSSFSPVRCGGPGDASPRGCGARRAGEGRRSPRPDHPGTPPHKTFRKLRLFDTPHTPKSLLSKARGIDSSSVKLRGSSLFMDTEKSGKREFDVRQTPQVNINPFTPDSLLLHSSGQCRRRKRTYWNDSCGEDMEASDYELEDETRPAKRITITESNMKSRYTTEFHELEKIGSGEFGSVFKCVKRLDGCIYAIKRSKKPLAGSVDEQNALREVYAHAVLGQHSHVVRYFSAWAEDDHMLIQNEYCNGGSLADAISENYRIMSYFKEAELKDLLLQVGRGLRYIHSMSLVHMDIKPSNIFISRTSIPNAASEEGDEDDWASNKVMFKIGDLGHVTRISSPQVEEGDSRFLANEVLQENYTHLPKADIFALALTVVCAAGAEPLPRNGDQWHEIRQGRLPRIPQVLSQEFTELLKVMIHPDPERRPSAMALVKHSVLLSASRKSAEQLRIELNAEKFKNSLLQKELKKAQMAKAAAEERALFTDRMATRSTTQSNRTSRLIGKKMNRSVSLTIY
T5 sequence (Q96SW2 whole entry): as the sequence (Q96SW2 whole entry) above
T5 sequence (Q16531 whole entry partner): as the sequence (Q16531 whole entry partner) above

GSPT1 = assay: as above; assay type: cell-based, Human; conditions: Western blot, 24 hours of compound treatment, compounds tested at 50 nM and 500 nM (concentration for the table not stated)
[1] = molecular target: T6, human Cereblon WT GST-tagged protein (Homo sapiens, UniProt Q96SW2); assay: CRBN-binding affinity, HTRF (CEREBLON BINDING kit); conditions: for inhibition at 0.5 µM: read-out: Inhibition Rate at 0.5 µM (%); for inhibition at 2 µM: read-out: Inhibition Rate at 2 µM (%)
T6 construct: purchased CISBIO 64BDCRBNPEH
T6 sequence (Q96SW2 whole entry): as the sequence (Q96SW2 whole entry) above

[2] = tested on: Human multiple myeloma cell (MM.1S); assay: Tumor cell proliferation inhibition (CellTiter-Meiluncell luminescent cell viability assay); conditions: for inhibition at 0.01 µM: read-out: Inhibition Rate at 10 nM (%); for inhibition at 0.5 µM: read-out: Inhibition Rate at 500 nM (%)

inhibition at 0.5 µM [1] [%] | inhibition at 2 µM [1] [%] | SMILES | CK1α substrate protein remaining % (CK1α) | IKZF 1 substrate protein remaining % (IKZF1) | IKZF2 substrate protein remaining % (IKZF2) | IKZF3 substrate protein remaining % (IKZF3) | Wee1 substrate protein remaining % (WEE1) | GSPT1 substrate protein remaining % (GSPT1) | inhibition at 0.01 µM ([2]; Homo sapiens, MM1.S, 96 h) [%] | inhibition at 0.5 µM ([2]; Homo sapiens, MM1.S, 96 h) [%] | pIC50 ([1]; CRBN binding, HTRF, 3 hours at room temperature, read-out: HTRF IC50) | IC50 ([2]; Homo sapiens, MM1.S, 96 h, read-out: Inhibitory activity (IC50, nM) on tumor cell proliferation, MM.1S) [nM] | Inhibition Rate at 500 nM (%) ([2]; MM.1S, 500 nM, 96 hours)
– | – | O=C1CCC(N2Cc3cc(CN4C5CC4CN(c4cccc(Cl)c4Cl)C5)ccc3C2=S)C(=O)N1 (stereo not drawn) [GT-05182, 3-(5-((3-(2,3-dichlorophenyl)-3,6-diazabicyclo[3.1.1]heptan-6-yl)methyl)-1-thioxoisoindolin-2-yl)piperidine-2,6-dione] | B (80%< substrate protein remaining %≤ 100%) | B (80%< substrate protein remaining %≤ 100%) | B (80%< substrate protein remaining %≤ 100%) | B (80%< substrate protein remaining %≤ 100%) | A (0% ≤ substrate protein remaining % ≤ 80%) | A (0% ≤ substrate protein remaining % ≤ 80%) | – | – | 6.30 to 7.00 | 100 to 500 | –
60 to 80 | 80 to 100 | O=C1CCC(N2Cc3c(CN4CCN(c5cc(Cl)ccn5)CC4)cccc3C2=S)C(=O)N1 (stereo not drawn) [GT-08695, 3-(4-((4-(4-chloropyridin-2-yl)piperazin-1-yl)methyl)-1-thioxoisoindolin-2-yl)piperidine-2,6-dione] | B (80%< substrate protein remaining %≤ 100%) | B (80%< substrate protein remaining %≤ 100%) | B (80%< substrate protein remaining %≤ 100%) | B (80%< substrate protein remaining %≤ 100%) | A (0% ≤ substrate protein remaining % ≤ 80%) | B (80%< substrate protein remaining %≤ 100%) | 20 to 30 | 40 to 50 | – | – | –
40 to 53 | 80 to 100 | O=C1CCC(N2Cc3cc(CN4CCN(c5ccccc5Br)CC4)ccc3C2=S)C(=O)N1 (stereo not drawn) [GT-08242, 3-(5-((4-(2-bromophenyl)piperazin-1-yl)methyl)-1-thioxoisoindolin-2-yl)piperidine-2,6-dione] | B (80%< substrate protein remaining %≤ 100%) | B (80%< substrate protein remaining %≤ 100%) | B (80%< substrate protein remaining %≤ 100%) | B (80%< substrate protein remaining %≤ 100%) | B (80%< substrate protein remaining %≤ 100%) | A (0% ≤ substrate protein remaining % ≤ 80%) | 30 to 40 | – | – | – | la8
40 to 53 | 80 to 100 | O=C1CCC(N2Cc3cc(CN4CCN(c5ccccc5Cl)CC4)ccc3C2=S)C(=O)N1 (stereo not drawn) [GT-08241, 3-(5-((4-(2-chlorophenyl)piperazin-1-yl)methyl)-1-thioxoisoindolin-2-yl)piperidine-2,6-dione] | B (80%< substrate protein remaining %≤ 100%) | B (80%< substrate protein remaining %≤ 100%) | B (80%< substrate protein remaining %≤ 100%) | B (80%< substrate protein remaining %≤ 100%) | B (80%< substrate protein remaining %≤ 100%) | A (0% ≤ substrate protein remaining % ≤ 80%) | 20 to 30 | 70 to 80 | – | – | –

SMILES | inhibition at 0.5 µM [1] [%] | inhibition at 2 µM [1] [%] | CK1α substrate protein remaining % (CK1α) | IKZF 1 substrate protein remaining % (IKZF1) | IKZF2 substrate protein remaining % (IKZF2) | IKZF3 substrate protein remaining % (IKZF3) | Wee1 substrate protein remaining % (WEE1) | GSPT1 substrate protein remaining % (GSPT1) | inhibition at 0.01 µM ([2]; Homo sapiens, MM1.S, 96 h) [%] | inhibition at 0.5 µM ([2]; Homo sapiens, MM1.S, 96 h) [%] | pIC50 ([1]; CRBN binding, HTRF, 3 hours at room temperature, read-out: HTRF IC50) | IC50 ([2]; Homo sapiens, MM1.S, 96 h, read-out: Inhibitory activity (IC50, nM) on tumor cell proliferation, MM.1S) [nM] | Inhibition Rate at 500 nM (%) ([2]; MM.1S, 500 nM, 96 hours)
O=C1CCC(N2Cc3cc(CN4CC5CC(C4)N5c4cccc(Cl)c4Cl)ccc3C2=S)C(=O)N1 (stereo not drawn) [GT-08476, 3-(5-((6-(2,3-dichlorophenyl)-3,6-diazabicyclo[3.1.1]heptan-3-yl)methyl)-1-thioxoisoindolin-2-yl)piperidine-2,6-dione] | 60 to 80 | 80 to 100 | B (80%< substrate protein remaining %≤ 100%) | B (80%< substrate protein remaining %≤ 100%) | B (80%< substrate protein remaining %≤ 100%) | A (0% ≤ substrate protein remaining % ≤ 80%) | B (80%< substrate protein remaining %≤ 100%) | B (80%< substrate protein remaining %≤ 100%) | 5 to 10 | 40 to 50 | – | – | –
